Laboratory results taken from patent US9932300B2, “N,N′-diarylurea compounds and N,N′-diarylthiourea compounds as inhibitors of translation initiation” (President and Fellows of Harvard College, priority 2009, dated 2018).
“And” between values parts separate entries of the source, which are not always exact repeats. Identical values can stand only once.

System: eIF2-GTP-Met-tRNAi ternary complex
Test: Ternary complex assay (dual luciferase, firefly/renilla ratio) in stable KLN-tTA/pBISA-DL(ATF-4) cells; HTS and hit confirmation
Type: cell-based, mouse
Design: Activity 10 uM / Activity 2.5 uM / Activity 5 uM: unit not given here
Conditions: confirmed hits of the screen (Table 5); for Activity 2.5 uM: compound at 2.5 uM; for Activity 10 uM: compound at 10 uM

Structure (SMILES) | Activity 2.5 uM | Activity 10 uM
Cc1c2c(c(C)c3c1C(=O)c1cc4c(cc1C3=O)OCO4)OC(C)(C)O2 [Compound 604868] | 0.86 | 5.36
O=C(N/N=C/c1ccccc1O)c1ccccc1.[Cu+2] [Compound 607085] | 2.21 | 3.55
CN(C)c1ccc(N=Nc2cccc(C(=O)[O-])c2)cc1.CN(C)c1ccc(N=Nc2cccc(C(=O)[O-])c2)cc1.NC1CCCCC1N.O=[N+]([O-])O.[Pt+4] [Compound 608144] | 3.82 | 112.47
C(=N\Nc1ccc2ccccc2n1)/c1ccccn1.CC(=O)[O-].CC(=O)[O-].[Zn+2] [Compound 609211] | 5.68 | 18.74
Cn1cc(/C=C/C(=O)c2ccccc2[N+](=O)[O-])c2ccccc21 [Compound 609810] | 2.44 | 4.69
O=C(N/N=C/c1ccccc1[O-])c1ccccc1O.O=C(N/N=C/c1ccccc1[O-])c1ccccc1O.[Mn+2] [Compound 610051] | 1.52 | 9.23
COC(=O)C1CCC(/C(C#N)=C2/CCC(C(=O)OC)[N-]2)=N1.COC(=O)C1CCC(/C(C#N)=C2/CCC(C(=O)OC)[N-]2)=N1.[Cu+2] (stereo not shown) [Compound 617738] | 1.05 | 7.65
CN1C/C(=C\c2ccccc2)C(=O)/C(=C/c2ccccc2)C1.Cl [Compound 618767] | 0.7 | 6.58
[Cl][Sn]([CH2][CH2][Sn]([Cl])([c]1ccccc1)[c]1ccccc1)([c]1ccccc1)[c]1ccccc1 [Compound 620291] | 8.39 | 9.07
CCC[CH2][Sn]([Cl])([CH2]CCC)[S]/C(C#N)=N/N=C/c1ccc(N(C)C)cc1 [Compound 620296] | 5.24 | 3.13
C[n+]1[se]nc2ccccc21.Cc1ccc(S(=O)(=O)[O-])cc1 [Compound 620852] | 4.79 | 16.94
Cc1c(C(=O)/C=C/c2ccccc2[N+](=O)[O-])[n+](=O)c2ccccc2n1[O-] [Compound 621482] | 1.17 | 5.15
Cc1cc2c(cc1C)[n+]([O-])c(-c1nc3ccccc3s1)c(N)[n+]2[O-] [Compound 621504] | 14.68 | 
COc1ccccc1NC(=S)N/N=C\c1cc(N=Nc2ccccc2)cc(OC)c1O [Compound 621792] | 1.27 | 3.75
COc1cc(N=Nc2ccccc2)cc(/C=N/NC(=S)Nc2ccccc2)c1[O-].COc1cc(N=Nc2ccccc2)cc(/C=N/NC(=S)Nc2ccccc2)c1[O-].[Cu+2] [Compound 621794] | 9.24 | 6.6
CSC(=Nc1ccccc1)/N=C(\SCc1ccccc1)N(C)C.I [Compound 622579] |  | 6.29 and 10.08
CN(C)C1=NC2=S(SC(Nc3ccccc3)=N2)S1 (stereo not shown) [Compound 622683] | 2.84 | 3.82
BrC(Br)=C1C(=C(Br)Br)C(Br)C1Br (stereo not shown) [Compound 624851] | 12.65 | 
CC(=O)[O-].[O-]c1c(Cl)cc(Cl)cc1/C=N/Nc1ccccn1.[Zn+2] [Compound 625863] | 3.75 | 3.72
COc1ccc2c(c1)CCc1c(CO)c(COC(=O)NC(C)C)n(C)c1-2 [Compound 627459] | 1.68 | 7.21

Structure (SMILES) | Activity 2.5 uM | Activity 10 uM
CCC[CH2][Sn]1([CH2]CCC)[O]c2ccccc2NCC[N]1c1ccccc1O [Compound 628577] | 1.45 | 3.06
Oc1ccccc1[N]1CCNc2ccccc2[O][Sn]1([c]1ccccc1)[c]1ccccc1 [Compound 628578] | 3.53 | 
C=[CH][Sn]([CH]=C)([S]c1cccc2cccnc12)[S]c1cccc2cccnc12 [Compound 628594] | 3.94 | 
COc1cc[c]([Hg][n+]2c[nH]c3[nH]cnc(=S)c32)cc1 [Compound 631943] | 6.31 | 
Nc1nc(=S)c2c(nc[n]2[Hg][c]2ccc([N+](=O)[O-])cc2)[nH]1 [Compound 631945] | 0.76 | 5.72
Cc1cc[c]([Hg][S]C(=S)NNc2ccccc2)cc1 [Compound 631946] | 13.13 | 
COc1ccc(/C=N/Nc2nc(-c3cc4oc(=O)n(C)c4cc3Cl)cs2)cc1OC [Compound 632134] | 1.26 | 3.5
[Cl][Ni][Cl].c1ccc(P(CCP(CCP(c2ccccc2)c2ccccc2)CCP(c2ccccc2)c2ccccc2)c2ccccc2)cc1 [Compound 633334] | 4.12 | 28.14
F[P-](F)(F)(F)(F)F.[C-]#[O+].[C-]#[O+].[CH]1[CH][CH][CH][CH]1.[Mo].c1ccc(P(CC[As](c2ccccc2)c2ccccc2)CC[As](c2ccccc2)c2ccccc2)cc1 [Compound 633346] | 8.05 | 11.64
F[C-](F)C(F)(F)C(F)(F)C(F)(F)C(F)(F)C(F)(F)C(F)(F)F.[CH]1[CH][CH][CH][CH]1.[Co+][I].c1ccc(P(CCP(c2ccccc2)c2ccccc2)c2ccccc2)cc1 [Compound 633992] | 13.09 | 
C(=C\P(c1ccccc1)c1ccccc1)/P(c1ccccc1)c1ccccc1.F[C-](F)C(F)(F)C(F)(F)F.F[P-](F)(F)(F)(F)F.[CH]1[CH][CH][CH][CH]1.[Co+2] [Compound 633995] | 14.38 | 11.56
F[C-](C(F)(F)F)C(F)(F)F.[CH]1[CH][CH][CH][CH]1.[Co+][I].c1ccc(P(CCP(c2ccccc2)c2ccccc2)c2ccccc2)cc1 [Compound 633997] | 17.11 | 12.56
F[C-](F)F.[C-]#[O+].[CH]1[CH][CH][CH][CH]1.[Mo].c1ccc(P(CCP(c2ccccc2)c2ccccc2)c2ccccc2)cc1 [Compound 634000] | 1.1 | 12.96
F[C-](C(F)(F)F)C(F)(F)F.F[P-](F)(F)(F)(F)F.[CH]1[CH][CH][CH][CH]1.[Co+2].c1ccc(P(CCP(c2ccccc2)c2ccccc2)c2ccccc2)cc1 [Compound 634014] | 11.17 | 12.92
C[Si](C)(C)c1ccc(CC2(Cc3ccc([Si](C)(C)C)cc3)CCNC2)cc1 [Compound 634157] | 0.8 | 3.99
F[P-](F)(F)(F)(F)F.[Cl][Co+].c1ccc(P(CCP(CCP(c2ccccc2)c2ccccc2)CCP(c2ccccc2)c2ccccc2)c2ccccc2)cc1 [Compound 634838] | 13.01 | 30.9
C[C-]=O.[C-]#[O+].[C-]#[O+].[Mn].c1ccc(P(CCP(c2ccccc2)c2ccccc2)CCP(c2ccccc2)c2ccccc2)cc1 [Compound 634842] | 1.71 | 8.37
c1ccc(P(CC[As](c2ccccc2)c2ccccc2)CC[As](c2ccccc2)c2ccccc2)cc1 [Compound 635022] | 0.96 | 4.8
[Pt].c1ccc(P(CCP(CCP(c2ccccc2)c2ccccc2)CCP(c2ccccc2)c2ccccc2)c2ccccc2)cc1 [Compound 635030] | 1.68 | 71.33
